Experimental data from US20200390755A1, “COMPOUND FOR TREATING NERVOUS SYSTEM DISEASES AND USE THEREOF” (SHAANXI MICOT TECHNOLOGY CO., LTD., priority 2018, published 2020).

Experiments:
N171-82Q HD mice [1] = assay: Slope balance beam experiment, HD mice; format: in vivo, mouse; details: 5 mg/kg/d intragastric
Experimental: (§1) 7-week-old N171-82Q HD male mice were paired with female B6C3F1/J hybrid mice to obtain newborn mice. From 21 days of age, male mice were housed in separate cages. 0.5 cm of mouse tail tissue was removed to extract DNA to determine the genotype of the mouse, such that N171-82Q HD mice and WT mice needed for the experiment were obtained. The mice were randomly divided into WT Vehicle group (normal mice), WT test compound group (administration group of normal mice, 5 mg/kg/d, n=10), HD Vehicle group (blank group of HD mice, n=15), HD test compound group (administration groups 1-5 of HD mice, 5 mg/kg/d, n=10). The test compound was suspended in 1% CMC-Na solution and administered by intragastric administration until the end of the study. The weights of the mice were measured every week. Behavioral tests were performed at 12 weeks, 18 weeks, and 24 weeks of age to investigate motor function. At 20 weeks, 3 samples of tissue from each group were used for western blotting and immunohistochemistry. At 24 weeks, MRI scans were performed. At the end of the study, the effect of the test compound on the mortality of mice was evaluated.
(§2) The software Sigmaplot 13.0 was used for statistical analysis of the data, and the data of each group was expressed as mean standard error (x±SEM). Behavioral test results were analyzed using two-way (genotype and processing factor) ANOVA and post-ho tests, the comparison and statistics of weight data were performed using two-way (genotype and age) ANOVA of repeated measures, and mortality was counted using Kaplan-Meier method. Other measurement data were analyzed by one-way ANOVA. P<0.05 was considered statistically significant.
(§3) The motor function of mice was evaluated by the rotarod experiment and three types of balance beam experiments. The shorter the time for mouse to cross the balance beam, and the longer the time to drop, the stronger the coordination ability of the mouse.
(§4) A square balance beam with a length of 100 cm and a width of 11 mm was placed at a 45-degree angle to the horizontal ground. A black box (12×12×12 cm) was placed at the end of the balance beam, and the starting platform was illuminated by bright lights. Spacers were placed under the balance beam to provide cushioning in case that the animal falls off the beam. One hour before the test, the mice were trained to cross the beam three times at one-eighth, one-quarter, and full-length distances from the black box, respectively. If the mice stopped walking during training, they were gently pressed with long forceps on the tail to encourage movement. After the training experiment, the mice rested for at least one hour in an undisturbed environment. In the experiment, the maximum time for each mouse to cross the balance beam was set to 60 seconds. If the time for crossing the beams was greater than 60 seconds, it was recorded as 60 seconds.

N171-82Q HD mice [2] = assay: Rotarod experiment, HD mice; format: in vivo, mouse; details: 5 mg/kg/d intragastric
Experimental: as §1, §2, §3
The maximum time for mice fatigue rotarod was set to 5 minutes, and the acceleration was set from 4 rpm up to 40 rpm. Time record was began when the mouse was placed on the rotarod. The time the mouse remained on the rod, i.e., drop latent period, was recorded to indicate its motor coordination ability. One day before the rotarod experiment, each mouse was trained for 5 minutes, and then rested in the cage after the training session. On the day of the experiment, the mice were placed on the rotating rotarod for three rounds of tests, with a 30-minute rest between tests before entering the next round of test. The result was the average of the three tests.

[3] = system: rats with permanent cerebral ischemia; assay: Neurobehavioral scoring in rats with permanent cerebral ischemia (MCAO thread plug); format: in vivo, SD rats; details: 20 mg/kg by gavage
Experimental: SD rats, male, about 220-250 g, were provided by the Experimental Animal Center of Medical College of Xi'an Jiaotong University. Rats were randomly divided into groups of 14 animals/group. The experiment included a sham group, a model group, a positive control Edaravone group and test compound groups 1-5.12 hours before the operation, the rats were fasted and were free to drink water, and then used for the modeling method of middle cerebral artery occlusion with thread plug. The rats were fixed on a wooden board after anesthesia, the common carotid artery was ligated proximally, the external carotid artery was ligated distally, and the main internal carotid artery into skull was retained. A ligature line was reserved at the bifurcation of the internal carotid artery for temporarily clamping the distal end of the internal carotid artery using an arterial clip. A 3-0 nylon thread with a length of 5 cm and a spherical shape with a diameter of 0.3 mm at the tip was inserted into the common carotid artery through a small incision at the bifurcation. The arterial clamp was loosened, and the thread plug was slowly advanced to 18˜20 mm. When there was resistance, the progress of the thread was stopped. At this time, the nylon thread plug entered the middle artery and blocked the blood flow, and then the ischemic phase began. The skin was sutured. In the sham operation group, the same procedure was executed, except that no thread plug was inserted.
Administering was performed at 0 h, 3 h, 6 h and 12 h after ischemia, and then administering was performed once a day for 7 consecutive days. The test compound was prepared into a 4 mg/mL solution with 1% CMC-Na solution and administered by gavage. The edaravone group received an intravenous dose of 0.078 mg/kg.
2) The rats were lifted at its tail about 1 foot off the ground to observe the condition of both forelimbs. The rats were placed on a level ground and pushed on both shoulders to observe the difference in resistance on both sides. The rats were placed on the ground to observe the walking. The assessment was conducted using a five-grade four-point scoring method (0 to 4 points). The higher the score, the more severe the neurobehavioral damage.
0 point: the behavior is completely normal;
1 point: when the rat is lifted at its tail off the ground, the forelimb on the opposite side of the operation rotates and folds inwardly.
2 points: when the rat is placed on a level ground and pushed on both shoulders to observe the difference in resistance on both sides, the resistance on the opposite side of the operation reduces;
3 points: when the rat is placed on the ground to the walking, it circles around the opposite side of the operation;
4 points: The injury is so severe that the rat is unable to move independently.
(2) Statistical analysis of data: SPSS18.0 statistical software was used for statistical analysis and the data of each group was expressed as the mean standard error (x±SEM). One-way ANOVA and multiple comparisons between groups were used to compare the averages of measurement data among multiple groups. Rank score test was used for behavioral grading data, and Kaplan-Meier method was used for mortality. P<0.05 was considered statistically significant.

N171-82Q HD mice [4] = assay: High-altitude balance beam (5 mm) experiment 2, HD mice; format: in vivo, mouse; details: 5 mg/kg/d intragastric
Experimental: as §1, §2, §3, §4
a square balance beam with a length of 80 cm and a width of 5 mm was place at a height of about 50 cm from the ground. The following steps are the same as the slope balance beam experiment.

N171-82Q HD mice [5] = assay: High-altitude balance beam (11 mm) experiment 1, HD mice; format: in vivo, mouse; details: 5 mg/kg/d intragastric
Experimental: as §1, §2, §3, §4
a round balance beam with a length of 80 cm and a diameter of 11 mm was place at a height of about 50 cm from the ground. The following steps are the same as the slope balance beam experiment.

CC1CC(C)CN(c2ccc(-c3cc(=O)c4ccc(O)c(O)c4o3)cc2)C1 (centres unmarked) [Example 5, 2-(4-(3,5-dimethylpiperidin-1-yl)phenyl)-7,8-dihydroxy-4H-chromen-4-one]
Time for crossing the beams, slope balance beam (N171-82Q HD mice [1]; 12 w): 14.94 ± 6.59 s
Time for crossing the beams, slope balance beam (N171-82Q HD mice [1]; 18 w): 16.67 ± 5.77 s
Time for crossing the beams, slope balance beam (N171-82Q HD mice [1]; 24 w): 18.58 ± 7.34 s
Time to drop (drop latent period), rotarod (N171-82Q HD mice [2]; 12 w): 98.19 ± 29.17 s
Time to drop (drop latent period), rotarod (N171-82Q HD mice [2]; 18 w): 101.03 ± 32.39 s
Time to drop (drop latent period), rotarod (N171-82Q HD mice [2]; 24 w): 81.71 ± 30.15 s
Neurobehavioral score (0 to 4 points) ([3]; 6 h after ischemia): 2.03 ± 0.29
Neurobehavioral score (0 to 4 points) ([3]; 1 d after ischemia): 1.86 ± 0.44
Neurobehavioral score (0 to 4 points) ([3]; 2 d after ischemia): 1.75 ± 0.25
Neurobehavioral score (0 to 4 points) ([3]; 3 d after ischemia): 1.94 ± 0.23
Neurobehavioral score (0 to 4 points) ([3]; 4 d after ischemia): 1.85 ± 0.34
Neurobehavioral score (0 to 4 points) ([3]; 5 d after ischemia): 1.93 ± 0.20
Neurobehavioral score (0 to 4 points) ([3]; 6 d after ischemia): 1.72 ± 0.44
Neurobehavioral score (0 to 4 points) ([3]; 7 d after ischemia): 1.19 ± 0.30
Time for crossing the beams, high-altitude balance beam (5 mm) (N171-82Q HD mice [4]; 12 w): 14.25 ± 5.34 s
Time for crossing the beams, high-altitude balance beam (5 mm) (N171-82Q HD mice [4]; 18 w): 14.98 ± 5.05 s
Time for crossing the beams, high-altitude balance beam (5 mm) (N171-82Q HD mice [4]; 24 w): 16.80 ± 5.97 s
Time for crossing the beams, high-altitude balance beam (11 mm) (N171-82Q HD mice [5]; 12 w): 8.04 ± 1.67 s
Time for crossing the beams, high-altitude balance beam (11 mm) (N171-82Q HD mice [5]; 18 w): 8.61 ± 3.25 s
Time for crossing the beams, high-altitude balance beam (11 mm) (N171-82Q HD mice [5]; 24 w): 9.77 ± 4.89 s
